Test results as given in ChEMBL document CHEMBL1201862, “PubChem BioAssay data set” (2004).
Values belong to the compound of their own block, whether it stands above or below them. Calls of active or inactive are those of the source. Cut-off read from the data, not from the text of the source, for most assays here: actives have a measured IC50 and inactives only a lower limit.

What was measured:
[1] = molecular target: NACHT, LRR and PYD domains-containing protein 1 (Homo sapiens, UniProt Q9C000); test: NALP1 inhibitors in yeast, dose response, luminescent (AID 488860); format: functional
Sequence of NACHT, LRR and PYD domains-containing protein 1 (Q9C000 1-1212 limits assumed): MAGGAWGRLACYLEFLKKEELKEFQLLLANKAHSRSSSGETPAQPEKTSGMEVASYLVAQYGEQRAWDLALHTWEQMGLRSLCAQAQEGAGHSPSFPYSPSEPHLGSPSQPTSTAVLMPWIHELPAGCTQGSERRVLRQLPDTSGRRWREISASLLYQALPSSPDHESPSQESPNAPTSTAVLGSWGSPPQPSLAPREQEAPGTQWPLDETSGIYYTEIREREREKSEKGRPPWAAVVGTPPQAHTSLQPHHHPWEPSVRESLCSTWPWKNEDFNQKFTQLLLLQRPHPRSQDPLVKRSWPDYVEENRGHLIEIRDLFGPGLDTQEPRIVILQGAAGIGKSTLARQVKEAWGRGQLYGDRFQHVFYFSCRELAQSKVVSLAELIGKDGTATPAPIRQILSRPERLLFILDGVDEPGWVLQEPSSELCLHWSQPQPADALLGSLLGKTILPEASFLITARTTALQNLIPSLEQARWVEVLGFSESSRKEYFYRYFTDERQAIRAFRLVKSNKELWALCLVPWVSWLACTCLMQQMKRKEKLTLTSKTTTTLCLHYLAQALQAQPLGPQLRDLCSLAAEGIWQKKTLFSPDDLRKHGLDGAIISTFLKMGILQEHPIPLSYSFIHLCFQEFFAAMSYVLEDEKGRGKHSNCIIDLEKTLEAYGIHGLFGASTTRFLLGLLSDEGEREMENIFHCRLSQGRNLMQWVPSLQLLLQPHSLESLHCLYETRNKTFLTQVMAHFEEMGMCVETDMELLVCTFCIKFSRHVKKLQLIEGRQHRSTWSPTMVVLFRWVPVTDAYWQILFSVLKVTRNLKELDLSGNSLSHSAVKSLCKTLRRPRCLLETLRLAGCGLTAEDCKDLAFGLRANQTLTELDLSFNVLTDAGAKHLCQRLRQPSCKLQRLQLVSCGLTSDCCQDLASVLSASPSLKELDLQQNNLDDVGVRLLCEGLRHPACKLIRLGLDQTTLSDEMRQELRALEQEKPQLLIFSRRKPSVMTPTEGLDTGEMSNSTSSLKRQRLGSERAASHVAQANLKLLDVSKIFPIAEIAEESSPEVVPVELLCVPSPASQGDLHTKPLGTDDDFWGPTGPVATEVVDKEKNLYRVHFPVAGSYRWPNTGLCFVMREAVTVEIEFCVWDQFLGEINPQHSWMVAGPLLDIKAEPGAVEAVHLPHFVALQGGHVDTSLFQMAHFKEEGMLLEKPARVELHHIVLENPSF
Sequence of NACHT, LRR and PYD domains-containing protein 1 (Q9C000 1213-1473 limits assumed): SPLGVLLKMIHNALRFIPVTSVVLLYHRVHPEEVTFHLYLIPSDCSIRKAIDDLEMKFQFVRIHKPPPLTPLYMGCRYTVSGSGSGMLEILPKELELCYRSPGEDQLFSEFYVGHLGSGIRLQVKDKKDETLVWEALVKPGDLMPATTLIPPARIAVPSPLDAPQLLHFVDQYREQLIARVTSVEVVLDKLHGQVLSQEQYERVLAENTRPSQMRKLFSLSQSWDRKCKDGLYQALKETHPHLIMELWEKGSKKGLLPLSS

Saccharomyces cerevisiae = test: NALP1 inhibitor project selectivity study, Caspase-1/ASC signal blockade IC50 in S. cerevisiae (AID 488863); format: functional, organism-based
[2] = molecular target: G-protein coupled receptor 55 (Homo sapiens, UniProt Q9Y2T6); test: GPR55 agonists via beta-arrestin recruitment, primary screen, imaging, U2OS cells, beta-arrestin-GFP redistribution (AID 1961); format: functional
Sequence of G-protein coupled receptor 55 (Q9Y2T6 whole entry): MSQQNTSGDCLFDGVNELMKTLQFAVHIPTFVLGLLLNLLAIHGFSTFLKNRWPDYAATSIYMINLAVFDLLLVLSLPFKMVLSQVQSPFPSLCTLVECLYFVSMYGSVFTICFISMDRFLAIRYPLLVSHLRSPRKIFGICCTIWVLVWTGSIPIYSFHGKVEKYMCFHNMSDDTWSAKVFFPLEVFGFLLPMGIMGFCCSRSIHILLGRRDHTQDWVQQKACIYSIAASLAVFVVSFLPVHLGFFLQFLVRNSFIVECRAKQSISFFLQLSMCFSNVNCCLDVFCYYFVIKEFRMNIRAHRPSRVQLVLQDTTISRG

[3] = molecular target: E3 ubiquitin-protein ligase Mdm2/Protein Mdm4 (Homo sapiens, UniProt O15151+Q00987); test: Mdm2-MdmX interaction inhibitors, dose response, luminescence detection (AID 504593); format: functional
Sequence of E3 ubiquitin-protein ligase Mdm2/Protein Mdm4 (Q00987 whole entry): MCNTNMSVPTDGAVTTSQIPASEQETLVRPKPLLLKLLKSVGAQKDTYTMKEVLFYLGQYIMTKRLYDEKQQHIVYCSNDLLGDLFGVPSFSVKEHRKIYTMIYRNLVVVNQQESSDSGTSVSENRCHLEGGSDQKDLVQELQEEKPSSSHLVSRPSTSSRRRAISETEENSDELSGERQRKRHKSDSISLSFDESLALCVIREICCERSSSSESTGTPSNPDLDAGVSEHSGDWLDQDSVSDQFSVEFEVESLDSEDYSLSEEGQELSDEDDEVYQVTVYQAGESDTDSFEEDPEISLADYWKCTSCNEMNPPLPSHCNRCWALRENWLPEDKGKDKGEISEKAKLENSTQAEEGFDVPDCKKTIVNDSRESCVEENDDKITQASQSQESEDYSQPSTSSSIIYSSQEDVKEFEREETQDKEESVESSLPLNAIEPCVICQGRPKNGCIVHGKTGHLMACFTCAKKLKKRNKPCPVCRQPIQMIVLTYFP
Sequence of E3 ubiquitin-protein ligase Mdm2/Protein Mdm4 (O15151 whole entry): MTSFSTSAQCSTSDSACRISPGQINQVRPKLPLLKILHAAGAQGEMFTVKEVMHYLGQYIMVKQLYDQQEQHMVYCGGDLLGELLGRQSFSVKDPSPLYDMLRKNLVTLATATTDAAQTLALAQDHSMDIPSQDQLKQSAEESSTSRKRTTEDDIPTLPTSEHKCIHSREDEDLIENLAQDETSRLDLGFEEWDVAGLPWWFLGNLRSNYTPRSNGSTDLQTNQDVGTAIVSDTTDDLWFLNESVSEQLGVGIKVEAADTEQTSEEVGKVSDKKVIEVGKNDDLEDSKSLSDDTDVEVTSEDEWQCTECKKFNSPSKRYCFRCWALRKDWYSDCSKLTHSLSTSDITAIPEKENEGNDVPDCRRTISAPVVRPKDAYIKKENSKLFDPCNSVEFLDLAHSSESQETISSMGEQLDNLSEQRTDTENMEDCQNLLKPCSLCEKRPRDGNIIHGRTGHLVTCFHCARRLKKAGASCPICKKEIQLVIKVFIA

H9c2 = test: cells; format: functional, cell-based; settings: Rattus norvegicus, H9c2, Myocardium;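 note: confirmatory concentration-response retest of ultra-high-throughput screening hits for modulation of myocardial damage; cell death induced by hydrogen peroxide oxidative stress; compound pretreatment for 60 min then peroxide exposure for 2 h; potency is for protecting the cells against peroxide damage rather than for killing them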
[4] = molecular target: T1, Alkaline phosphatase, tissue-nonspecific isozyme (Homo sapiens, UniProt P05186); test: human TNAP enzyme inhibitors, SAR follow-up, biochemical, luminescent, dose response (AID 1056)
T1 sequence (P05186 whole entry): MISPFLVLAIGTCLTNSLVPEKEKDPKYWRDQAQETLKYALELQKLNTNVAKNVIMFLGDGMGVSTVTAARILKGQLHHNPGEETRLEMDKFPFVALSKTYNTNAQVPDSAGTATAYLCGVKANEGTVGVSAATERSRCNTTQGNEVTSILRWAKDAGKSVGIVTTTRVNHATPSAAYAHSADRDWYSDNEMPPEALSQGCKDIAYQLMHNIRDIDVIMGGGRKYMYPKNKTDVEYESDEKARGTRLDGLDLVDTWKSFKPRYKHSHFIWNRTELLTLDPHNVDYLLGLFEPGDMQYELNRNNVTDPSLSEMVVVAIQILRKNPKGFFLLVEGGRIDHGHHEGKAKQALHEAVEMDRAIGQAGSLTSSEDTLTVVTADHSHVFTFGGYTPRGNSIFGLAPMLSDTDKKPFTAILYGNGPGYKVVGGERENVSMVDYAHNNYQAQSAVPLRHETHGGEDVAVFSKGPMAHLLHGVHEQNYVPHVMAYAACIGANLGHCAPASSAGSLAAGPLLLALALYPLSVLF

[5] = molecular target: Alkaline phosphatase, placental type (Homo sapiens, UniProt P05187); test: PLAP enzyme inhibitors, confirmation, biochemical, luminescence (AID 1512); format: functional
Sequence of Alkaline phosphatase, placental type (P05187 whole entry): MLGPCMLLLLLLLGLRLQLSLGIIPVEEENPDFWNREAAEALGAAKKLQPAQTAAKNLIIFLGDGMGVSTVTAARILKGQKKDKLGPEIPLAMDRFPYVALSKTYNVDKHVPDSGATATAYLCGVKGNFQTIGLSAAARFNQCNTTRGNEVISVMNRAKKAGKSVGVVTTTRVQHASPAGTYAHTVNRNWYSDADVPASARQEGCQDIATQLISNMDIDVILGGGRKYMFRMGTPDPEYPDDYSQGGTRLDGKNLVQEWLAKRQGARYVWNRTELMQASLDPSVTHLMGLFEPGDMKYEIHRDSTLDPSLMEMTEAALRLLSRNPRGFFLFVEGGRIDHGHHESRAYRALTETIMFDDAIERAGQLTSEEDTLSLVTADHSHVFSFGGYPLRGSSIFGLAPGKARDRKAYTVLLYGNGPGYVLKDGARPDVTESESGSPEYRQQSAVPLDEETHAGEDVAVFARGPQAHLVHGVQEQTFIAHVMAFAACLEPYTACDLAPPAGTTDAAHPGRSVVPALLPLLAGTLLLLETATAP

SMILES: COC(=O)c1sccc1NC(=O)c1csc(C)c1
IC50 [1]: 15.9 µM (active)
IC50 (Saccharomyces cerevisiae): 60.4 µM (active)

EC50 [2]: 6.41 µM (active)
SMILES: O=C(O)c1cccc(CSc2nnc(-c3ccc(Cl)cc3Cl)[nH]2)c1

SMILES: CC(=O)c1ccc(-c2ccc(C(=O)Nc3nc(-c4ccccn4)cs3)o2)cc1
IC50 [3]: 3.97 µM (active)
IC50 (H9c2): > 79 µM (inactive)

IC50 [4]: 21.7 µM (active)
IC50 [5]: 12.2 µM (active)
SMILES: O=C(CSc1nnc(-c2ccco2)[nH]1)c1ccc(O)c(O)c1
